Data published in PubChem BioAssay AID248 (DTP/NCI, 2004).
Where “and” joins values, the source holds several entries; their conditions need not be identical. Equal values may be shown once. Inconclusive results and toxic doses are left out. Cut-off read from the data, not from the text of the source: active = T/C of 150% or more; inactive = T/C below 125%.

Tested on: L1210 leukemia ip in BDF1 mice, survival T/C
Test: NCI In Vivo Anticancer Drug Screen. Data for tumor model L1210 Leukemia (intraperitoneal) in B6D2F1 (BDF1) mice
Conditions: endpoint: mean survival time, higher = longer survival
In short: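 Mice bearing the transplanted tumor received compound or vehicle. Survival of the treated group was divided by that of the vehicle-treated control group to give the ratio.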

[1] = dose: 100.0 mg/kg/injection, schedule: Q04DX003 (ip), vehicle: Klucel (hydroxypropylcellulose) (HPC)
[2] = dose: 200.0 mg/kg/injection, schedule: Q04DX003 (ip), vehicle: Klucel (hydroxypropylcellulose) (HPC)
[3] = dose: 400.0 mg/kg/injection, schedule: Q04DX003 (ip), vehicle: Klucel (hydroxypropylcellulose) (HPC)
[4] = dose: 12.5 mg/kg/injection, schedule: Q01DX009 (ip), vehicle: saline with Tween-80
[5] = dose: 25.0 mg/kg/injection, schedule: Q01DX009 (ip), vehicle: saline with Tween-80
[6] = dose: 25.0 mg/kg/injection, schedule: Q04DX002 (ip), vehicle: saline with Tween-80
[7] = dose: 100.0 mg/kg/injection, schedule: Q01DX009 (ip), vehicle: saline with Tween-80
[8] = dose: 200.0 mg/kg/injection, schedule: Q01DX009 (ip), vehicle: saline with Tween-80
[9] = dose: 100.0 mg/kg/injection, schedule: Q04DX003 (ip), vehicle: saline with Tween-80
[10] = dose: 200.0 mg/kg/injection, schedule: Q04DX003 (ip), vehicle: saline with Tween-80
[11] = dose: 400.0 mg/kg/injection, schedule: Q04DX003 (ip), vehicle: saline with Tween-80
[12] = dose: 100.0 mg/kg/injection, schedule: Q01DX001 (ip), vehicle: carboxymethylcellulose (CMC)
[13] = dose: 200.0 mg/kg/injection, schedule: Q01DX001 (ip), vehicle: carboxymethylcellulose (CMC)
[14] = dose: 400.0 mg/kg/injection, schedule: Q01DX001 (ip), vehicle: carboxymethylcellulose (CMC)
[15] = dose: 100.0 mg/kg/injection, schedule: Q01DX001 (ip), vehicle: Klucel (hydroxypropylcellulose) (HPC)
[16] = dose: 200.0 mg/kg/injection, schedule: Q01DX001 (ip), vehicle: Klucel (hydroxypropylcellulose) (HPC)
[17] = dose: 400.0 mg/kg/injection, schedule: Q01DX001 (ip), vehicle: Klucel (hydroxypropylcellulose) (HPC)

Measured: T/C

O=C(O)c1cc2ccccc2cc1O.Oc1cccc2cccnc12.[Cu]
inactive: dose: 0.5 mg/kg/injection, schedule: Q01DX015 (ip), vehicle: carboxymethylcellulose (CMC) 91 % of control | dose: 1.0 mg/kg/injection, schedule: Q01DX015 (ip), vehicle: carboxymethylcellulose (CMC) 91 % of control | dose: 4.0 mg/kg/injection, schedule: Q01DX015 (ip), vehicle: carboxymethylcellulose (CMC) 93 % of control | dose: 8.0 mg/kg/injection, schedule: Q01DX015 (ip), vehicle: carboxymethylcellulose (CMC) 89 % of control and 90 % of control

NC1=CCNN1
inactive: dose: 75.0 mg/kg/injection, schedule: Q01DX001 (ip), vehicle: saline 106 % of control | dose: 150.0 mg/kg/injection, schedule: Q01DX001 (ip), vehicle: saline 93 % of control | dose: 300.0 mg/kg/injection, schedule: Q01DX001 (ip), vehicle: saline 94 % of control

Cn1c(N)nc2nc[nH]c2c1=O
inactive: dose: 18.7 mg/kg/injection, schedule: Q01DX Z (ip), vehicle: methylcellulose (MC) 95 % of control | dose: 37.5 mg/kg/injection, schedule: Q01DX Z (ip), vehicle: methylcellulose (MC) 89 % of control

CC(=O)Nc1ccc2c(c1)Cc1cc(Br)ccc1-2
inactive: [1] 100 % of control | [2] 100 % of control | [3] 103 % of control

CC(C)C(CN=C(N)N)c1cccc2ccccc12 (centres undefined)
inactive: [4] 100 % of control | [5] 103 % of control | [6] 100 % of control | dose: 50.0 mg/kg/injection, schedule: Q01DX009 (ip), vehicle: saline with Tween-80 91 % of control | dose: 50.0 mg/kg/injection, schedule: Q04DX002 (ip), vehicle: saline with Tween-80 100 % of control

CCCCOC(=O)Nc1cccc(O)c1
inactive: [7] 92 % of control | [8] 87 % of control

CC(=O)Nc1cccc(NC(C)=O)n1
inactive: [9] 94 % of control | [10] 104 % of control | [11] 100 % of control

CCCCCC(=O)Oc1c(C(C)CC)cc([N+](=O)[O-])cc1[N+](=O)[O-] (centres undefined)
inactive: dose: 6.25 mg/kg/injection, schedule: Q01DX009 (ip), vehicle: saline with Tween-80 111 % of control | [4] 88 % of control | [5] 90 % of control | [6] 89 % of control

CNC(=O)NC1CCCCC1
inactive: [12] 106 % of control | dose: 100.0 mg/kg/injection, schedule: Q01DX009 (ip), vehicle: carboxymethylcellulose (CMC) 92 % of control and 98 % of control | dose: 100.0 mg/kg/injection, schedule: Q04DX002 (ip), vehicle: carboxymethylcellulose (CMC) 97 % of control | dose: 100.0 mg/kg/injection, schedule: Q04DX003 (ip), vehicle: carboxymethylcellulose (CMC) 100 % of control | [13] 103 % of control | dose: 200.0 mg/kg/injection, schedule: Q01DX009 (ip), vehicle: carboxymethylcellulose (CMC) 95 % of control and 96 % of control | dose: 200.0 mg/kg/injection, schedule: Q04DX002 (ip), vehicle: carboxymethylcellulose (CMC) 89 % of control | dose: 200.0 mg/kg/injection, schedule: Q04DX003 (ip), vehicle: carboxymethylcellulose (CMC) 97 % of control | [14] 106 % of control | dose: 400.0 mg/kg/injection, schedule: Q01DX009 (ip), vehicle: carboxymethylcellulose (CMC) 101 % of control | dose: 400.0 mg/kg/injection, schedule: Q04DX002 (ip), vehicle: carboxymethylcellulose (CMC) 100 % of control | dose: 400.0 mg/kg/injection, schedule: Q04DX003 (ip), vehicle: carboxymethylcellulose (CMC) 100 % of control

O=c1[nH]cnc2nc(/N=N/SCCO)[nH]c12
inactive: dose: 44.4 mg/kg/injection, schedule: Q01DX Z (ip), vehicle: methylcellulose (MC) 101 % of control | dose: 66.6 mg/kg/injection, schedule: Q01DX Z (ip), vehicle: methylcellulose (MC) 108 % of control | dose: 100.0 mg/kg/injection, schedule: Q01DX Z (ip), vehicle: methylcellulose (MC) 116 % of control | dose: 150.0 mg/kg/injection, schedule: Q01DX Z (ip), vehicle: methylcellulose (MC) 121 % of control

O=[N+]([O-])c1ccc(N=C/C=C/c2ccccc2)cc1
inactive: [7] 88 % of control | [8] 94 % of control | dose: 400.0 mg/kg/injection, schedule: Q01DX009 (ip), vehicle: saline with Tween-80 104 % of control

O=C(O)CCc1nc2ccccc2[nH]1
inactive: dose: 75.0 mg/kg/injection, schedule: Q01DX009 (ip), vehicle: Klucel (hydroxypropylcellulose) (HPC) 107 % of control | dose: 150.0 mg/kg/injection, schedule: Q01DX009 (ip), vehicle: Klucel (hydroxypropylcellulose) (HPC) 100 % of control | dose: 300.0 mg/kg/injection, schedule: Q01DX009 (ip), vehicle: Klucel (hydroxypropylcellulose) (HPC) 104 % of control

COc1ccc(C2(OC)Oc3ccccc3C(=O)C2(O)O)cc1 (centres undefined)
inactive: dose: 50.0 mg/kg/injection, schedule: Q01DX001 (ip), vehicle: saline 101 % of control | dose: 100.0 mg/kg/injection, schedule: Q01DX001 (ip), vehicle: saline 104 % of control | dose: 200.0 mg/kg/injection, schedule: Q01DX001 (ip), vehicle: saline 101 % of control | dose: 400.0 mg/kg/injection, schedule: Q01DX001 (ip), vehicle: saline 104 % of control

Cc1c(N)nc(Br)c2ccccc12
inactive: [9] 105 % of control | [10] 101 % of control | [11] 110 % of control

CC(C)(C)OC(=O)CSC#N
inactive: dose: 5.0 mg/kg/injection, schedule: Q01DX001 (ip), vehicle: saline 101 % of control | dose: 10.0 mg/kg/injection, schedule: Q01DX001 (ip), vehicle: saline 95 % of control | dose: 20.0 mg/kg/injection, schedule: Q01DX001 (ip), vehicle: saline 101 % of control

Cc1ccc(-c2ccc(-c3ccc(C)cc3)o2)cc1
inactive: [15] 95 % of control | [16] 102 % of control and 90 % of control | [17] 94 % of control

O=C1OCC/C1=C/OCCCCCCCCCCO/C=C1\CCOC1=O
inactive: dose: 100.0 mg/kg/injection, schedule: Q04DX002 (ip), vehicle: Klucel (hydroxypropylcellulose) (HPC) 91 % of control | dose: 200.0 mg/kg/injection, schedule: Q04DX002 (ip), vehicle: Klucel (hydroxypropylcellulose) (HPC) 91 % of control | dose: 400.0 mg/kg/injection, schedule: Q04DX002 (ip), vehicle: Klucel (hydroxypropylcellulose) (HPC) 94 % of control

OCC(Cc1ccc(Cl)cc1)N1CCCCC1 (centres undefined)
inactive: [12] 96 % of control | [13] 100 % of control | [14] 89 % of control

O=C(NC(=O)C(Cl)Cl)Nc1cccc2c1Cc1ccccc1-2
inactive: dose: 50.0 mg/kg/injection, schedule: Q04DX003 (ip), vehicle: Klucel (hydroxypropylcellulose) (HPC) 105 % of control | [15] 100 % of control | dose: 100.0 mg/kg/injection, schedule: Q01DX009 (ip), vehicle: Klucel (hydroxypropylcellulose) (HPC) 98 % of control | [1] 96 % of control and 101 % of control | [16] 89 % of control | dose: 200.0 mg/kg/injection, schedule: Q01DX009 (ip), vehicle: Klucel (hydroxypropylcellulose) (HPC) 93 % of control | [2] 100 % of control | [17] 94 % of control | dose: 400.0 mg/kg/injection, schedule: Q01DX009 (ip), vehicle: Klucel (hydroxypropylcellulose) (HPC) 93 % of control | [3] 90 % of control and 92 % of control

O=C(Sc1ccccc1)c1ccccc1
inactive: dose: 50.0 mg/kg/injection, schedule: Q01DX001 (ip), vehicle: carboxymethylcellulose (CMC) 105 % of control | [12] 105 % of control | [13] 108 % of control | [14] 100 % of control

O=C(OCC1CC1)c1cc([N+](=O)[O-])cc([N+](=O)[O-])c1
inactive: dose: 25.0 mg/kg/injection, schedule: Q04DX003 (ip), vehicle: saline with Tween-80 108 % of control | dose: 50.0 mg/kg/injection, schedule: Q04DX003 (ip), vehicle: saline with Tween-80 106 % of control | [9] 101 % of control
